From ChEMBL document CHEMBL5500347, “An update on antibacterial AlkylGuanidino Ureas: Design of new derivatives, synergism with colistin and data analysis of the whole library” (2024)
In brackets after ≈: the same amount, converted by molar mass. Activity calls are given as the source filed them. The rule behind the calls is not given here.

Assays:
[1] = system: Acinetobacter baumannii; test: Antibacterial activity against Acinetobacter baumannii N50 incubated for 18 to 24 hrs by CLSI based microdilution broth method; format: functional; conditions: time 18-24 hrs
[2] = system: Pseudomonas aeruginosa; test: Antibacterial activity against Pseudomonas aeruginosa ATCC 27853 incubated for 18 to 24 hrs by CLSI based microdilution broth method; format: functional; conditions: Pseudomonas aeruginosa, ATCC 27853; time 18-24 hrs
[3] = system: Acinetobacter baumannii; test: Synergistic antibacterial activity against Acinetobacter baumannii ATCC 17978 incubated for 18 to 24 hrs in presence of colistin by CLSI based microdilution broth method; format: functional; conditions: time 18-24 hrs
[4] = system: Acinetobacter baumannii; test: Synergistic antibacterial activity against Acinetobacter baumannii N50 assessed as potentiation fold by measuring MIC to MAC ratio incubated for 18 to 24 hrs in presence of colistin by CLSI based microdilution broth method; format: functional; conditions: time 18-24 hrs
[5] = system: Escherichia coli; test: Antibacterial activity against Escherichia coli CCUGT incubated for 18 to 24 hrs by CLSI based microdilution broth method; format: functional; conditions: Escherichia coli, CCUGT; time 18-24 hrs; read-out: MIC
[6] = system: Klebsiella pneumoniae; test: Antibacterial activity against Klebsiella pneumoniae ATCC 13833 incubated for 18 to 24 hrs by CLSI based microdilution broth method; format: functional; conditions: Klebsiella pneumoniae, ATCC 13833; time 18-24 hrs; read-out: MIC
[7] = system: Acinetobacter baumannii; test: Synergistic antibacterial activity against Acinetobacter baumannii ATCC 17978 assessed as potentiation fold by measuring MIC to MAC ratio incubated for 18 to 24 hrs in presence of colistin by CLSI based microdilution broth method; format: functional; conditions: time 18-24 hrs
[8] = system: Acinetobacter baumannii; test: Antibacterial activity against Acinetobacter baumannii ATCC 17978 incubated for 18 to 24 hrs by CLSI based microdilution broth method; format: functional; conditions: Acinetobacter baumannii, ATCC 17978; time 18-24 hrs
[9] = system: Acinetobacter baumannii; test: Synergistic antibacterial activity against Acinetobacter baumannii N50 incubated for 18 to 24 hrs in presence of colistin by CLSI based microdilution broth method; format: functional; conditions: time 18-24 hrs
[10] = system: Streptococcus pyogenes; test: Antibacterial activity against Streptococcus pyogenes ATCC 12344 incubated for 18 to 24 hrs by CLSI based microdilution broth method; format: functional; conditions: time 18-24 hrs
[11] = system: Klebsiella pneumoniae; test: Antibacterial activity against Klebsiella pneumoniae ATCC 13833 at 256 ug/ml incubated for 18 to 24 hrs by CLSI based microdilution broth method; format: functional, organism-based; conditions: dose 256.0 µg/ml, time 18-24 hrs
[12] = system: Enterococcus faecalis; test: Antibacterial activity against Enterococcus faecalis ATCC 19433 incubated for 18 to 24 hrs by CLSI based microdilution broth method; format: functional; conditions: time 18-24 hrs
[13] = system: Staphylococcus aureus; test: Antibacterial activity against Staphylococcus aureus ATCC 25923 incubated for 18 to 24 hrs by CLSI based microdilution broth method; format: functional; conditions: time 18-24 hrs
[14] = system: Escherichia coli; test: Antibacterial activity against Escherichia coli CCUGT at 256 ug/ml incubated for 18 to 24 hrs by CLSI based microdilution broth method; format: functional, organism-based; conditions: dose 256.0 µg/ml, time 18-24 hrs
[15] = system: Acinetobacter baumannii; test: Antibacterial activity against Acinetobacter baumannii ATCC 17978 at 256 ug/ml incubated for 18 to 24 hrs by CLSI based microdilution broth method; format: functional, organism-based; conditions: dose 256.0 µg/ml, time 18-24 hrs
[16] = system: Pseudomonas aeruginosa; test: Antibacterial activity against Pseudomonas aeruginosa ATCC 27853 at 256 ug/ml incubated for 18 to 24 hrs by CLSI based microdilution broth method; format: functional, organism-based; conditions: dose 256.0 µg/ml, time 18-24 hrs
[17] = system: Bacillus subtilis; test: Antibacterial activity against Bacillus subtilis ATCC 6633 incubated for 18 to 24 hrs by CLSI based microdilution broth method; format: functional; conditions: time 18-24 hrs
[18] = system: Pseudomonas aeruginosa; test: Synergistic antibacterial activity against Pseudomonas aeruginosa ATCC 27853 assessed as potentiation fold by measuring MIC to MAC ratio incubated for 18 to 24 hrs in presence of colistin by CLSI based microdilution broth method; format: functional; conditions: time 18-24 hrs
[19] = system: Pseudomonas aeruginosa; test: Synergistic antibacterial activity against Pseudomonas aeruginosa ATCC 27853 incubated for 18 to 24 hrs in presence of colistin by CLSI based microdilution broth method; format: functional; conditions: time 18-24 hrs
[20] = system: Escherichia coli; test: Synergistic antibacterial activity against Escherichia coli CCUGT assessed as potentiation fold by measuring MIC to MAC ratio incubated for 18 to 24 hrs in presence of colistin by CLSI based microdilution broth method; format: functional; conditions: time 18-24 hrs
[21] = system: Escherichia coli; test: Synergistic antibacterial activity against Escherichia coli CCUGT incubated for 18 to 24 hrs in presence of colistin by CLSI based microdilution broth method; format: functional; conditions: time 18-24 hrs

Compound	MIC [2] [µg/mL]	MIC [5] [µg/mL]	MIC [6] [µg/mL]	MIC [8] [µg/mL]	MIC [10] [µg/mL]	MIC [12] [µg/mL]	MIC [13] [µg/mL]	MIC [17] [µg/mL]	other results
CCNC(=N)NCCCCCCCCN(CCCCCCCCNC(=N)NCC)C(=O)N(CCCCCCCCNC(=N)NCC)CCCCCCCCNC(=N)NCC	64 (≈ 75.4 µM)	2 (≈ 2.35 µM)	4 (≈ 4.71 µM)	16 (≈ 18.8 µM)	–	–	–	–	MIC [1]: 64 µg/mL (≈ 75.4 µM); MAC [3]: 0.5 µg/mL; Ratio [4]: 256; Ratio [7]: 32; MAC [9]: 0.25 µg/mL
CCNC(=N)NCCCCCCCCNC(N)=O.O=C(O)C(F)(F)F	–	–	–	–	64	128	32	64	Activity [11]: inactive; Activity [14]: inactive; Activity [15]: inactive; Activity [16]: inactive
N=C(NCCCCCCNC(N)=O)NCC1CC1.O=C(O)C(F)(F)F	–	–	–	–	128	128	128	128	Activity [11]: inactive; Activity [14]: inactive; Activity [15]: inactive; Activity [16]: inactive
CC(C)=CCC/C(C)=C/CNC(=N)NCCCCCCCCN(CCCCCCCCNC(=N)N)C(=O)N(CCCCCCCCNC(=N)N)CCCCCCCCNC(=N)NC/C=C(\C)CCC=C(C)C.O=C(O)C(F)(F)F	8	2	2	4	2	2	1	2	–
N=C(NCCCCCCCCN(CCCCCCCCNC(=N)NCC1CC1)C(=O)N(CCCCCCNC(=N)NCC1CC1)CCCCCCNC(=N)NCC1CC1)NCC1CC1	128 (≈ 143 µM)	4 (≈ 4.46 µM)	4 (≈ 4.46 µM)	64 (≈ 71.3 µM)	–	–	–	–	MIC [1]: 64 µg/mL (≈ 71.3 µM); MAC [3]: 4 µg/mL; Ratio [18]: 1; Ratio [4]: 32; Ratio [7]: 16; MAC [9]: 2 µg/mL; MAC [19]: 128 µg/mL
CC(C)NC(=N)NCCCCCCCCNC(N)=O.O=C(O)C(F)(F)F	–	–	–	–	64	128	64	64	Activity [11]: inactive; Activity [14]: inactive; Activity [15]: inactive; Activity [16]: inactive
CNC(=N)NCCCCCCCCNC(N)=O.O=C(O)C(F)(F)F	–	–	–	–	64	128	32	128	Activity [11]: inactive; Activity [14]: inactive; Activity [15]: inactive; Activity [16]: inactive
N=C(N)NCCCCCCCCN(CCCCCCCCNC(=N)NCC1CC1)C(=O)N(CCCCCCCCNC(=N)NCC1CC1)CCCCCCNC(=N)N.O=C(O)C(F)(F)F	16	1	1	16	0.5	1	0.25	0.5	–
N=C(N)NCCCCCCCN(CCCCCCCNC(=N)NCC1CC1)C(=O)N(CCCCCCNC(=N)N)CCCCCCNC(=N)NCC1CC1.O=C(O)C(F)(F)F	32	16	8	32	4	4	1	2	–
N=C(N)NCCCCCCCCN(CCCCCCCCNC(=N)NCCN1CCOCC1)C(=O)N(CCCCCCCCNC(=N)N)CCCCCCCCNC(=N)NCCN1CCOCC1.O=C(O)C(F)(F)F	64	4	4	32	1	2	1	1	–
N=C(N)NCCCCCCCCN(CCCCCCCCNC(=N)NCC1CC1)C(=O)N(CCCCCCNC(=N)N)CCCCCCNC(=N)NCC1CC1.O=C(O)C(F)(F)F	16	8	4	16	1	4	0.5	2	–
N=C(N)NCCCCCCCCN(CCCCCCCCNC(=N)NCC1CC1)C(=O)N(CCCCCCCCNC(=N)N)CCCCCCNC(=N)NCC1CC1.O=C(O)C(F)(F)F	128	8	4	64	4	4	1	4	–
N=C(N)NCCCCCCCN(CCCCCCCNC(=N)NCC1CC1)C(=O)N(CCCCCCCNC(=N)N)CCCCCCCNC(=N)NCC1CC1.O=C(O)C(F)(F)F	32	8	8	32	4	8	2	2	–
C/C=C/CNC(=N)NCCCCCCCCN(CCCCCCCCNC(=N)N)C(=O)N(CCCCCCCCNC(=N)N)CCCCCCCCNC(=N)NC/C=C/C.O=C(O)C(F)(F)F	16	2	2	8	2	2	1	2	–
N=C(N)NCCCCCCCCN(CCCCCCNC(=N)NCC1CC1)C(=O)N(CCCCCCCCNC(=N)N)CCCCCCNC(=N)NCC1CC1.O=C(O)C(F)(F)F	128	4	4	64	1	8	0.25	1	–
CC(C)CNC(=N)NCCCCCCCCN(CCCCCCCCNC(=N)N)C(=O)N(CCCCCCCCNC(=N)N)CCCCCCCCNC(=N)NCC(C)C.O=C(O)C(F)(F)F	16	4	4	8	4	4	2	2	–
C/C=C/CNC(=N)NCCCCCCCCNC(N)=O.O=C(O)C(F)(F)F	–	128	128	–	32	64	32	64	Activity [15]: inactive; Activity [16]: inactive
COCCNC(=N)NCCCCCCCCN(CCCCCCCCNC(=N)N)C(=O)N(CCCCCCCCNC(=N)N)CCCCCCCCNC(=N)NCCOC.O=C(O)C(F)(F)F	16	1	2	8	0.5	1	0.5	0.5	–
CCNC(=N)NCCCCCCN(CCCCCCNC(=N)NCC1CC1)C(=O)N(CCCCCCNC(=N)NCC)CCCCCCNC(=N)NCC1CC1	128 (≈ 162 µM)	8 (≈ 10.1 µM)	16 (≈ 20.3 µM)	64 (≈ 81.1 µM)	–	–	–	–	MAC [3]: 4 µg/mL; Ratio [20]: 1; Ratio [7]: 16; MAC [21]: 8 µg/mL
CC(C)NC(=N)NCCCCCCCCN(CCCCCCCCNC(=N)N)C(=O)N(CCCCCCCCNC(=N)N)CCCCCCCCNC(=N)NC(C)C.O=C(O)C(F)(F)F	8	0.5	1	8	0.5	0.5	0.25	0.5	–
CCCCNC(=N)NCCCCCCCCN(CCCCCCCCNC(=N)N)C(=O)N(CCCCCCCCNC(=N)N)CCCCCCCCNC(=N)NCCCC.O=C(O)C(F)(F)F	8	2	2	4	2	2	1	1	–
N=C(N)NCCCCCCCCN(CCCCCCCCNC(=N)NCCC12CC3CC(CC(C3)C1)C2)C(=O)N(CCCCCCCCNC(=N)N)CCCCCCCCNC(=N)NCCC12CC3CC(CC(C3)C1)C2.O=C(O)C(F)(F)F	128	32	32	64	16	16	8	16	–
